According to ChEMBL document CHEMBL1201862, “PubChem BioAssay data set” (2004):
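Tested at 5 concentrations; 48 h exposure; 96-well plates; endpoints linearly interpolated, else capped at highest concentration. At the GI50, growth is halved.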 The source made the active and inactive calls. Cut-off read from the data, not from the text of the source: active = GI50 up to about 1.1 µM and inactive = higher.

Experiments:
Assay in all cases: NCI anticancer screen, dose series, 48 h
BT-549 = system: BT-549
UACC-62 = system: UACC-62
A549 = system: A549
UACC-257 = system: UACC-257
K562 = system: K562
SK-OV-3 = system: SK-OV-3
DU-145 = system: DU-145
OVCAR-5 = system: OVCAR-5
PC-3 = system: PC-3
HCC 2998 = system: HCC 2998
786-0 = system: 786-0
SW-620 = system: SW-620
MOLT-4 = system: MOLT-4
SK-MEL-28 = system: SK-MEL-28
MDA-MB-231 = system: MDA-MB-231
CAKI-1 = system: CAKI-1
HT-29 = system: HT-29
UO-31 = system: UO-31
NCI-H522 = system: NCI-H522
RPMI-8226 = system: RPMI-8226

SMILES | GI50 (BT-549) | GI50 (UACC-62) | GI50 (A549) | GI50 (UACC-257) | GI50 (K562) | GI50 (SK-OV-3) | GI50 (DU-145) | GI50 (OVCAR-5) | GI50 (PC-3) | GI50 (HCC 2998) | GI50 (786-0) | GI50 (SW-620) | GI50 (MOLT-4) | GI50 (SK-MEL-28) | GI50 (MDA-MB-231) | GI50 (CAKI-1) | GI50 (HT-29) | GI50 (UO-31) | GI50 (NCI-H522) | GI50 (RPMI-8226)
CO/C(N)=C(C#N)/N=C/c1ccsc1 | 20.4 µM (inactive) | 33.4 µM (inactive) | > 100 µM (inactive) | 41.9 µM (inactive) | 30.4 µM (inactive) | > 100 µM (inactive) | 42.4 µM (inactive) | > 100 µM (inactive) | 81.1 µM (inactive) | > 100 µM (inactive) | 23.9 µM (inactive) | 53.2 µM (inactive) | 47.6 µM (inactive) | 85.5 µM (inactive) | 32.7 µM (inactive) | 37.2 µM (inactive) | 40.7 µM (inactive) | > 100 µM (inactive) | 23.9 µM (inactive) | 
N#Cc1c(=O)c2ccccc2n2c1[nH]c1ccccc12 | 58.3 µM (inactive) | 29.4 µM (inactive) | 58.1 µM (inactive) | 86.1 µM (inactive) | 21.3 µM (inactive) |  | 33.9 µM (inactive) | > 100 µM (inactive) | 29 µM (inactive) | 58.3 µM (inactive) | 41 µM (inactive) | 48.5 µM (inactive) | 12.4 µM (inactive) | 52.2 µM (inactive) | 54.6 µM (inactive) | 35.2 µM (inactive) | 30.5 µM (inactive) | 33.7 µM (inactive) |  | 19.2 µM (inactive)
CC(=O)NCCCCNCCCNC(C)=O | > 100 µM (inactive) | > 100 µM (inactive) | > 100 µM (inactive) | > 100 µM (inactive) | > 100 µM (inactive) | > 100 µM (inactive) | > 100 µM (inactive) | > 100 µM (inactive) |  | > 100 µM (inactive) | > 100 µM (inactive) | > 100 µM (inactive) | > 100 µM (inactive) | > 100 µM (inactive) | > 100 µM (inactive) | > 100 µM (inactive) | > 100 µM (inactive) | > 100 µM (inactive) | > 100 µM (inactive) | > 100 µM (inactive)
CC1(C)N=C(N)N=C(N)N1c1cccc(C(=O)Nc2ccc(S(=O)(=O)F)cc2)c1 | > 100 µM (inactive) | > 100 µM (inactive) | > 100 µM (inactive) | > 100 µM (inactive) | > 100 µM (inactive) | > 100 µM (inactive) | > 100 µM (inactive) | > 100 µM (inactive) | > 100 µM (inactive) |  | > 100 µM (inactive) | > 100 µM (inactive) | > 100 µM (inactive) | > 100 µM (inactive) | > 100 µM (inactive) | > 100 µM (inactive) | > 100 µM (inactive) | > 100 µM (inactive) | > 100 µM (inactive) | > 100 µM (inactive)
C#CC(O)/C=C/CCCCCCC#CC/C=C\CC#CCCCCCCCCC(O)C#C (centres undefined) | 6.71 µM (inactive) | 9.08 µM (inactive) | 8.43 µM (inactive) | 3.35 µM (inactive) | 3.14 µM (inactive) | 17.6 µM (inactive) | 5.83 µM (inactive) | 12.8 µM (inactive) | 14.3 µM (inactive) | 3.63 µM (inactive) | 2.08 µM (inactive) | 3.5 µM (inactive) | 0.27 µM (active) | 3.42 µM (inactive) | 3.32 µM (inactive) | 4.29 µM (inactive) | 2.74 µM (inactive) | 0.667 µM (active) | 0.174 µM (active) | 
CC(=O)NC1C(OCc2ccccc2)OC(CO)C(O)C1OCC(=O)NC(C)C(=O)NC(CCC(=O)NCCCCNc1ccc([N+](=O)[O-])c2[nH]c3ccccc3c(=O)c12)C(N)=O (centres undefined) | 30.1 µM (inactive) |  | 50.1 µM (inactive) |  | > 100 µM (inactive) | > 100 µM (inactive) | > 100 µM (inactive) | > 100 µM (inactive) | > 100 µM (inactive) | > 100 µM (inactive) | 42.9 µM (inactive) | > 100 µM (inactive) |  | > 100 µM (inactive) | > 100 µM (inactive) | > 100 µM (inactive) | 69.3 µM (inactive) | > 100 µM (inactive) |  | 
C=CCN1CCC(OC(=O)C(O)(/C=C\CC)C2CCCC2)CC1 (centres undefined) | > 100 µM (inactive) | > 100 µM (inactive) | > 100 µM (inactive) | 0.525 µM (active) | > 100 µM (inactive) | > 100 µM (inactive) | > 100 µM (inactive) | > 100 µM (inactive) | > 100 µM (inactive) |  | > 100 µM (inactive) |  | > 100 µM (inactive) | > 100 µM (inactive) | > 100 µM (inactive) | > 100 µM (inactive) | > 100 µM (inactive) | > 100 µM (inactive) | > 100 µM (inactive) | > 100 µM (inactive)
O=c1c2c([N+](=O)[O-])cccc2nc2[nH]c3ccccc3n12 | 20.5 µM (inactive) | 19.5 µM (inactive) | 40.3 µM (inactive) | > 75 µM (inactive) | > 75 µM (inactive) | 13.3 µM (inactive) | 34 µM (inactive) | > 75 µM (inactive) | 57.8 µM (inactive) | 19.3 µM (inactive) | 29.1 µM (inactive) | > 75 µM (inactive) | > 75 µM (inactive) | > 75 µM (inactive) | 14.7 µM (inactive) | 14.6 µM (inactive) | 63.2 µM (inactive) |  |  | 64.1 µM (inactive)
CN(Cc1cnc2nc(N)nc(N)c2n1)c1ccc(C(=O)NCS(=O)(=O)O)cc1 | > 100 µM (inactive) | > 100 µM (inactive) | 95.7 µM (inactive) | > 100 µM (inactive) | > 100 µM (inactive) | > 100 µM (inactive) | 25.7 µM (inactive) | > 100 µM (inactive) | 48.1 µM (inactive) | > 100 µM (inactive) | 59.3 µM (inactive) | 78.5 µM (inactive) | 68.2 µM (inactive) | > 100 µM (inactive) | > 100 µM (inactive) |  | > 100 µM (inactive) | > 100 µM (inactive) | > 100 µM (inactive) | > 100 µM (inactive)
Cc1onc(-c2c(F)cccc2Cl)c1C(=O)N[C@@H]1C(=O)N2[C@@H]1SC(C)(C)[C@@H]2C(=O)O | > 100 µM (inactive) | > 100 µM (inactive) | > 100 µM (inactive) | > 100 µM (inactive) | > 100 µM (inactive) | > 100 µM (inactive) | > 100 µM (inactive) | > 100 µM (inactive) | > 100 µM (inactive) |  | > 100 µM (inactive) | > 100 µM (inactive) |  | > 100 µM (inactive) | > 100 µM (inactive) | > 100 µM (inactive) | > 100 µM (inactive) | 24.5 µM (inactive) | > 100 µM (inactive) | > 100 µM (inactive)
O=c1c(Sc2c(SCSc3cnc4ccccc4c3Sc3c[nH]c4ccccc4c3=O)cnc3ccccc23)c[nH]c2ccccc12 | > 100 µM (inactive) | 43.3 µM (inactive) | > 10 µM (inactive) | > 100 µM (inactive) |  |  | > 100 µM (inactive) | > 100 µM (inactive) | > 10 µM (inactive) | > 100 µM (inactive) | > 100 µM (inactive) | 44.7 µM (inactive) | > 100 µM (inactive) | 22.9 µM (inactive) | 34.9 µM (inactive) | > 100 µM (inactive) | > 100 µM (inactive) | > 100 µM (inactive) | > 100 µM (inactive) | 14.5 µM (inactive)
CC(=O)O[C@H]1CC[C@@]2(C)C(=CC[C@H]3[C@@H]4C/C(=C\c5ccc(N(C)C)cc5)[C@H](OC(C)=O)[C@@]4(C)CC[C@@H]32)C1 | 12 µM (inactive) | 6.41 µM (inactive) | 5.92 µM (inactive) | 6.14 µM (inactive) | 6.59 µM (inactive) | 43.4 µM (inactive) | 23.8 µM (inactive) | 19.6 µM (inactive) | 4.41 µM (inactive) |  | 4.36 µM (inactive) | 14.9 µM (inactive) | 5.98 µM (inactive) | 12.7 µM (inactive) | 12.5 µM (inactive) |  | 8.43 µM (inactive) | 11.3 µM (inactive) |  | 4.89 µM (inactive)
O=C1NC(=S)N/C1=C\c1cc2c(=O)c3ccccc3sc2s1 | 35 µM (inactive) | 29.4 µM (inactive) |  | > 100 µM (inactive) | 29.9 µM (inactive) |  | > 100 µM (inactive) | > 100 µM (inactive) | 72.1 µM (inactive) | 71.1 µM (inactive) | 40.2 µM (inactive) | 57.8 µM (inactive) | 23.5 µM (inactive) | 40.4 µM (inactive) | > 100 µM (inactive) | > 100 µM (inactive) | 55.1 µM (inactive) | 58.5 µM (inactive) | 71 µM (inactive) | 25.6 µM (inactive)
Cn1cc(NC(=O)Nc2cc(C(=O)Nc3cc(C(=O)Nc4ccc(S(=O)(=O)O)c5cc(S(=O)(=O)O)ccc45)n(C)c3)n(C)c2)cc1C(=O)Nc1cc(C(=O)Nc2ccc(S(=O)(=O)O)c3cc(S(=O)(=O)O)ccc23)n(C)c1 | > 100 µM (inactive) | > 100 µM (inactive) | 85.7 µM (inactive) | > 100 µM (inactive) | > 100 µM (inactive) | > 100 µM (inactive) | > 100 µM (inactive) | > 100 µM (inactive) | > 100 µM (inactive) | > 100 µM (inactive) | > 100 µM (inactive) | > 100 µM (inactive) | > 100 µM (inactive) | > 100 µM (inactive) | > 100 µM (inactive) |  | > 100 µM (inactive) | > 100 µM (inactive) | > 100 µM (inactive) | > 100 µM (inactive)
